Measurements reported in ChEMBL document CHEMBL2331400, “Structure-based design and evaluation of naphthalene diimide G-quadruplex ligands as telomere targeting agents in pancreatic cancer cells” (J Med Chem, 2013).
Calls of active or inactive are those of the source. The rule behind the calls is not given here.

Assays:
MIA PaCa-2 [1] = test: Cytotoxicity against human MIAPaCa2 cells assessed as growth inhibition after 96 hrs by SRB assay; type: functional, cell-based; conditions: MIA PaCa-2, 96 h
MIA PaCa-2 [2] = test: Cytotoxicity against human MIAPaCa2 cells assessed as growth inhibition at 160 nM after 72 hrs by microscopic analysis; type: functional, cell-based
MIA PaCa-2 [3] = test: Downregulation of PPP1R15A gene expression in human MIAPaCa2 cells at subcytotoxic concentration after 24 hrs by qPCR analysis; type: functional, cell-based
Homo sapiens = species: Homo sapiens; test: Stabilization of human telomeric G-quadruplex DNA sequence 5'-FAM-d(GGG[TTAGGG]3)-TAMRA-3' assessed as melting temperature at 1 uM by FRET assay
[4] = Cytotoxicity against human RCC4 cells assessed as growth inhibition after 96 hrs by SRB assay; type: functional, cell-based; conditions: RCC4, 96 h
MIA PaCa-2 [5] = test: Upregulation of NHP2 gene expression in human MIAPaCa2 cells at 20 to 80 nM after 24 hrs by qPCR analysis relative to solvent-treated control; type: functional
MIA PaCa-2 [6] = test: Induction of ATM/[…] gene expression in human MIAPaCa2 cells by qPCR analysis; type: functional, cell-based
MIA PaCa-2 [7] = test: Downregulation of PARP1 gene expression in human MIAPaCa2 cells at 20 to 160 nM after 24 hrs by qPCR analysis relative to solvent-treated control; type: functional, cell-based
MIA PaCa-2 [8] = test: Downregulation of BAX gene expression in human MIAPaCa2 cells at 20 to 160 nM after 24 hrs by qPCR analysis relative to solvent-treated control; type: functional, cell-based
MIA PaCa-2 [9] = test: Downregulation of DDIT3 gene expression in human MIAPaCa2 cells at subcytotoxic concentration after 24 hrs by qPCR analysis; type: functional, cell-based
unidentified [10] = test: Stabilization of HSP90b promoter sequence 5'-FAM-d(GGGCGGGCCAAAGGGAAGGGG)-TAMRA-3' (unknown origin) assessed as melting temperature at 1 uM by FRET assay
MIA PaCa-2 [11] = test: Upregulation of UNG gene expression in human MIAPaCa2 cells at sublethal concentration after 24 hrs by qPCR analysis; type: functional, cell-based
MIA PaCa-2 [12] = test: Upregulation of PPM1D gene expression in human MIAPaCa2 cells at cytotoxic concentration after 24 hrs by qPCR analysis; type: functional, cell-based
MIA PaCa-2 [13] = test: Downregulation of POT1 gene expression in human MIAPaCa2 cells at 20 to 80 nM after 24 hrs by qPCR analysis relative to solvent-treated control; type: functional, cell-based
A549 = test: Cytotoxicity against human A549 cells assessed as growth inhibition after 96 hrs by SRB assay; type: functional, cell-based; conditions: A549, 96 h
MIA PaCa-2 [14] = test: Downregulation of GADD45A gene expression in human MIAPaCa2 cells at subcytotoxic concentration after 24 hrs by qPCR analysis; type: functional, cell-based
MIA PaCa-2 [15] = test: Induction of ATR/[…] gene expression in human MIAPaCa2 cells by qPCR analysis; type: functional, cell-based
MIA PaCa-2 [16] = test: Downregulation of […] gene expression in human MIAPaCa2 cells at 20 to 80 nM after 24 hrs by qPCR analysis relative to solvent-treated control; type: functional
MIA PaCa-2 [17] = test: Induction of gamma-H2AX gene expression in human MIAPaCa2 cells by qPCR analysis; type: functional, cell-based
786-0 = test: Cytotoxicity against human 786-0 cells assessed as growth inhibition after 96 hrs by SRB assay; type: functional, cell-based; conditions: 786-0, 96 h
MIA PaCa-2 [18] = test: Downregulation of SLX4 gene expression in human MIAPaCa2 cells at 20 to 80 nM after 24 hrs by qPCR analysis relative to solvent-treated control; type: functional
MIA PaCa-2 [19] = test: Upregulation of PRKCB gene expression in human MIAPaCa2 cells at 20 to 80 nM after 24 hrs by qPCR analysis relative to solvent-treated control; type: functional
MIA PaCa-2 [20] = test: Downregulation of GADD45G gene expression in human MIAPaCa2 cells at subcytotoxic concentration after 24 hrs by qPCR analysis; type: functional, cell-based
MIA PaCa-2 [21] = test: Downregulation of TP73 gene expression in human MIAPaCa2 cells at 160 nM after 24 hrs by qPCR analysis; type: functional, cell-based
MIA PaCa-2 [22] = test: Upregulation of TP73 gene expression in human MIAPaCa2 cells at sublethal concentration after 24 hrs by qPCR analysis; type: functional, cell-based
unidentified [23] = test: Stabilization of duplex DNA T-loop (unknown origin) 5'-FAM-dTATAGCTATA-HEG-TATAGCTATA-TAMRA-3' assessed as melting temperature at 1 uM by FRET assay
MIA PaCa-2 [24] = test: Cytotoxicity against human MIAPaCa2 cells assessed as growth inhibition at 5 to 40 nM after 144 hrs by microscopic analysis; type: functional, cell-based
MIA PaCa-2 [25] = test: Upregulation of PPARG gene expression in human MIAPaCa2 cells at 20 to 80 nM after 24 hrs by qPCR analysis relative to solvent-treated control; type: functional
MIA PaCa-2 [26] = test: Inhibition of telomerase activity in human MIAPaCa2 cells assessed as telomere elongation up to 10 uM after 7 days by TRAP-LIG assay; type: cell-based
MIA PaCa-2 [27] = test: Upregulation of CDKN1A gene expression in human MIAPaCa2 cells at cytotoxic concentration after 24 hrs by qPCR analysis; type: functional, cell-based
MIA PaCa-2 [28] = test: Cytotoxicity against human MIAPaCa2 cells assessed as growth inhibition at 80 nM after 72 hrs by microscopic analysis; type: functional, cell-based
MIA PaCa-2 [29] = test: Downregulation of MPG gene expression in human MIAPaCa2 cells at 20 to 160 nM after 24 hrs by qPCR analysis relative to solvent-treated control; type: functional, cell-based
MIA PaCa-2 [30] = test: Downregulation of CDKN1A gene expression in human MIAPaCa2 cells at subcytotoxic concentration after 24 hrs by qPCR analysis; type: functional, cell-based
MIA PaCa-2 [31] = test: Downregulation of CDK7 gene expression in human MIAPaCa2 cells at 20 to 160 nM after 24 hrs by qPCR analysis relative to solvent-treated control; type: functional, cell-based
MIA PaCa-2 [32] = test: Inhibition of telomerase activity in human MIAPaCa2 cells assessed as telomere elongation at 5 to 7.5 nM after 7 days by TRAP-LIG assay; type: cell-based
MIA PaCa-2 [33] = test: Downregulation of PTGES3 gene expression in human MIAPaCa2 cells at 20 to 80 nM after 24 hrs by qPCR analysis relative to solvent-treated control; type: functional, cell-based
MIA PaCa-2 [34] = test: Upregulation of PPP1R15A gene expression in human MIAPaCa2 cells at cytotoxic concentration after 24 hrs by qPCR analysis; type: functional, cell-based
MIA PaCa-2 [35] = test: Upregulation of GADD45G gene expression in human MIAPaCa2 cells at cytotoxic concentration after 24 hrs by qPCR analysis; type: functional, cell-based
MIA PaCa-2 [36] = test: Downregulation of UNG gene expression in human MIAPaCa2 cells at 160 nM after 24 hrs by qPCR analysis; type: functional, cell-based
MIA PaCa-2 [37] = test: Downregulation of NTHL1 gene expression in human MIAPaCa2 cells at 160 nM after 24 hrs by qPCR analysis; type: functional, cell-based
MIA PaCa-2 [38] = test: Upregulation of MYC gene expression in human MIAPaCa2 cells at 20 to 80 nM by qPCR analysis relative to solvent-treated control; type: functional

Structure (SMILES): CN1CCN(CCCNc2cc3c4c(c(NCCCN5CCN(C)CC5)cc5c4c2C(=O)N(CCCN2CCOCC2)C5=O)C(=O)N(CCCN2CCOCC2)C3=O)CC1
- IC50 (MIA PaCa-2 [1]): 10 nM
- growth inhibition (GI) (MIA PaCa-2 [2]): Active
- Activity (MIA PaCa-2 [3]): inactive
- ΔTm (Homo sapiens): 26.6 °C
- IC50 [4]: 560 nM
- fold change (FC) (MIA PaCa-2 [5]): >2
- Activity (MIA PaCa-2 [6]): inactive
- Activity (MIA PaCa-2 [7]): Active
- Activity (MIA PaCa-2 [8]): Active
- Activity (MIA PaCa-2 [9]): inactive
- ΔTm (unidentified [10]): 28.6 °C
- Activity (MIA PaCa-2 [11]): inactive
- Activity (MIA PaCa-2 [12]): Active
- Activity (MIA PaCa-2 [13]): Active
- IC50 (A549): < 10 nM
- Activity (MIA PaCa-2 [14]): inactive
- Activity (MIA PaCa-2 [15]): inactive
- fold change (FC) (MIA PaCa-2 [16]): >2
- Activity (MIA PaCa-2 [17]): Active
- IC50 (786-0): 320 nM
- fold change (FC) (MIA PaCa-2 [18]): >2
- fold change (FC) (MIA PaCa-2 [19]): >2
- Activity (MIA PaCa-2 [20]): inactive
- Activity (MIA PaCa-2 [21]): Active
- Activity (MIA PaCa-2 [22]): inactive
- ΔTm (unidentified [23]): 4.9 °C
- growth inhibition (GI) (MIA PaCa-2 [24]): inactive
- fold change (FC) (MIA PaCa-2 [25]): >2
- inhibition (MIA PaCa-2 [26]): inactive
- Activity (MIA PaCa-2 [27]): Active
- growth inhibition (GI) (MIA PaCa-2 [28]): inactive
- Activity (MIA PaCa-2 [29]): Active
- Activity (MIA PaCa-2 [30]): inactive
- Activity (MIA PaCa-2 [31]): Active
- inhibition (MIA PaCa-2 [32]): inactive
- Activity (MIA PaCa-2 [33]): Active
- Activity (MIA PaCa-2 [34]): Active
- Activity (MIA PaCa-2 [35]): Active
- Activity (MIA PaCa-2 [36]): Active
- Activity (MIA PaCa-2 [37]): Active
- fold change (FC) (MIA PaCa-2 [38]): >2
